Test results reported in patent US20240408071A1, “NOVEL COMBINATION OF SEROTONIN RECEPTOR (5-HTR2B) ANTAGONIST AND AN IMMUNOMODULATOR AND CHEMOTHERAPEUTIC DRUGS FOR INHIBITION OF CANCER” (NATIONAL CENTRE FOR CELL SCIENCE, priority 2021, published 2024).

Test system: tumor-infiltrating immune cells in MC38 tumor
Assay: Tumor-infiltrating immune cells in MC38 tumor (flow cytometry / immunohistochemistry)
Type: in vivo, C57BL/6 mice
Description: FIG. 7 depicts that antagonizing the 5-HTR2B in mice inhibits breast and colon tumor growth: (A) MC38 colon cancer cells were injected subcutaneously into the right flank of C57BL/6 mice. […] Tumor volumes were measured and plotted. (B) MC38 colon cancer cells were injected subcutaneously into the right flank of C57BL/6 mice. After seven days when tumors became palpable, one group was treated with 5-HTR7 antagonist SB-269970 (n=6 mice; 3 mg/kg/day) or left untreated (n=6 mice). Tumor volume was measured and plotted. (C) After seven days of the setting of tumor growth, one group was treated with a serotonin transporter blocker (SSRI) sertraline hydrochloride (n=6 mice; 15 mg/kg/week) or left untreated (n=6 mice). Tumor volume was measured and plotted. (D) C57BL/6 mice were given subcutaneously injected MC38 cells. After seven days of tumor growth, one group of mice was treated with different doses of 5-HTR2B antagonist SB-215505 (n=6). Tumor volume was measured and plotted. (E) C57BL/6 mice were given subcutaneously injected MC38 cells. After seven days of the tumor growth, one group of mice was treated with different doses of 5-HTR2B antagonist SB-215505 (n=6), one group treated with 5-HTR2B agonist BW-723C86 (n=6; 4 mg/kg/day). Tumor volume was measured and plotted. (F) MC38 cells were subcutaneously injected into C57BL/6 mice. After seven days when the tumor became palpable in mice, one group of mice was treated with FDA-approved 5-HTR2B antagonist cariprazine (Carispec; Sun pharma) via oral gavage (n=5 mice; dose 5 mg/kg body weight/day) or left untreated (n=5 mice). Tumor growth was measured and plotted. (G) Breast cancer cell lines (4T1-Luc cells) were injected into the mammary fatpad of BALB/c mice. After seven days of the tumor growth setting in mice, one group of mice was treated with 5-HTR2B antagonist SB-215505(n=5 mice) or left untreated (n=5 mice). Tumour volumes were measured and plotted. (H) Mice melanoma (B16F10 cells) were injected subcutaneously in the left flank of C57BL/6J mice. After seven days of the tumor growth setting in mice, one group of mice was treated with 5-HTR2B antagonist SB-215505(n=5 mice) or left untreated (n=5 mice). Tumour volumes were measured and plotted. (I) Statistical analysis of the flow cytometric data showing the differential expression of F4/80^+CD11B^+ macrophages within MC38 tumor following treatment with 5-HTR2B antagonist. (J) Statistical analysis of the flow cytometric data showing the differential expression of F4/80^+CD11B^+ iNOS^+ M1 macrophages within MC38 tumor following treatment 5-HTR2B antagonist. (K) Statistical analysis of the flow cytometric data showing the differential expression of F4/80^+CD1B^+ Arg1^+ M2 macrophages within MC38 tumor following treatment with 5-HTR2B antagonist. (L) Immuno-Histochemistry data of MC38 tumor tissue from control and 5-HTR2B antagonist treated mice showing expression of F4/80 (cyan), iNOS (blue), arginase 1 (green), and CD11c (red). Images are taken in […] and inset images are acquired in 600× magnification and DAPI (blue) is used as counterstain. All the images in the panel were taken at 200× magnification. The image in the inset was taken in 600× magnification. All the statistical analysis was performed using Student's ‘t’ test or two-way ANOVA using Sidak's multiple comparison test. *P<0.05; **P<0.01; […]; ****P<0.0001 Error bar represents mean±standard error of means (SEM).
FIG. 9 depicts the effect of5-HTR antagonists on the CTL response MC38 tumor model in mice: (A) Clinical data correlation study. A TIDE computational method was used to study the association between the tumor-infiltrating CD8 T cells (also known as cytotoxic T lymphocytes, CTL) level and overall subject survival in relation to the intratumoral 5-HTR2B gene expression level. […]

[1] = day 24, compared to control and SB-215505 treated tumor (FIG. 14)

CC(C)c1cc(-c2ccc(F)c3ccccc23)nc(N)n1 [RS-127445]
total CD11c+ DCs in the TME: reducing the total CD11c^+ DCs | percentage of PD-L1+ CD11c+ DCs in the tumor [1]: much reduced percentage | percentage of PD-L1+ arginase1+ M2 macrophages in the tumor [1]: much reduced percentage | percentage of PD-L1+ total macrophages in the tumor [1]: much reduced percentage | percentage of PD-L1+iNOS+ M1 macrophages in the tumor [1]: much reduced percentage | percentage of total CD11b+Gr1+ MDSCs in the tumor [1]: much reduced percentage
